This note sets out measurements from PubChem BioAssay (NCI).

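Tested at 5 concentrations; 48 h exposure; 96-well plates; endpoints linearly interpolated, else capped at highest concentration. GI50 is the concentration that inhibits growth by half. TGI is the concentration that stops growth completely.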

Test systems include SNB-19 CNS; KM12 colon; SR leukemia; A549 NSCLC; HCT-15 colon; SN12C renal; SK-MEL-28 melanoma; LOX IMVI melanoma; SK-OV-3 ovarian; HOP-62 NSCLC.
Holding throughout (assay): inhibition of tumour cell growth, NCI panel, 48 h

As for `COc1ccc(/C(C)=N/NC(=O)CSc2nc3ccccc3c(=O)n2CCc2ccc(S(N)(=O)=O)cc2)cc1`, the GI50 in the experiment on SNB-19 CNS is 2.27 µM; in the experiment on KM12 colon, 2.06 µM; in the experiment with SR leukemia, 2520 nM; in the experiment with A549 NSCLC it was 2100 nM; in the experiment on HCT-15 colon, 4.7 µM; in the experiment with SN12C renal, 1890 nM. Besides, the GI50 in the experiment with SK-MEL-28 melanoma was 1.75 µM. The TGI with SNB-19 CNS is 4.78 µM; in the experiment with KM12 colon, 3.96 µM; in the experiment on SR leukemia it was above 100 µM; in the experiment on A549 NSCLC, 4 µM; with HCT-15 colon, 63.7 µM; with SN12C renal, 3.75 µM. Besides, the TGI in the experiment with SK-MEL-28 melanoma amounted to 3.3 µM.

In the case of `CC1(C)CCCC2(C)C3C(O)CC2(C)C(O)C31` (centres undefined), the TGI with SNB-19 CNS, in the experiment on KM12 colon, with LOX IMVI melanoma, in the experiment with A549 NSCLC, in the experiment with HCT-15 colon and in the experiment with SK-OV-3 ovarian was above 100 µM throughout. For the same compound, the TGI in the experiment with SN12C renal, in the experiment on SK-MEL-28 melanoma and with HOP-62 NSCLC was above 100 µM each time.

On to `CCOC(=O)C(=O)Nc1cc(Cl)c(Cl)cc1Cl`, for which the TGI in the experiment with SNB-19 CNS, in the experiment on KM12 colon, in the experiment with LOX IMVI melanoma, in the experiment on HCT-15 colon, in the experiment with SK-OV-3 ovarian and in the experiment with SN12C renal was above 100 µM each time. The TGI in the experiment with SK-MEL-28 melanoma and in the experiment with HOP-62 NSCLC was above 100 µM each time.

Consider `N#CC1=C(N)NC(=S)NC1c1ccc(-c2ccc(-c3nc4ccccc4o3)cc2)s1` (centres undefined), for which the GI50 with SNB-19 CNS is 13.3 µM; in the experiment with KM12 colon, 15.1 µM; in the experiment on LOX IMVI melanoma, 9.58 µM; with A549 NSCLC, 9000 nM; with HCT-15 colon, 12.3 µM; in the experiment on SK-OV-3 ovarian, 11 µM. The figures for the GI50 in the experiment on SN12C renal and in the experiment with HOP-62 NSCLC were 10600 nM and 9.33 µM, respectively. For the same compound, the TGI was above 50 µM in the experiment with SNB-19 CNS; above 50 µM with KM12 colon; 21.4 µM with LOX IMVI melanoma; 20.2 µM in the experiment with A549 NSCLC; above 50 µM with HCT-15 colon; 31 µM with SK-OV-3 ovarian. Moreover, the TGI in the experiment with SN12C renal was 28.4 µM; with HOP-62 NSCLC it was 20.1 µM.

As to `CC1=C(C(=O)NCc2ccccc2)C(c2ccc(Cl)c(Cl)c2)C(C(=O)NCc2ccccc2)=C(C)N1`, the TGI in the experiment on SNB-19 CNS, with KM12 colon, in the experiment on LOX IMVI melanoma, in the experiment on SR leukemia, in the experiment on A549 NSCLC and in the experiment on HCT-15 colon was above 100 µM in each case. The TGI with SN12C renal, with SK-MEL-28 melanoma and in the experiment on HOP-62 NSCLC was above 100 µM in each case.

Regarding `O=S(=O)(NCCNc1nccc(-c2c(-c3ccc(F)c(O)c3)nc3sccn23)n1)c1ccc(Cl)cc1`, the GI50 is 3.35 µM with SNB-19 CNS; 1.78 µM in the experiment with LOX IMVI melanoma; 1870 nM in the experiment on SR leukemia; 1690 nM with A549 NSCLC; 1.67 µM with HCT-15 colon; 2.8 µM in the experiment with SK-OV-3 ovarian. The GI50 in the experiment with SN12C renal is 1540 nM; with HOP-62 NSCLC, 6.17 µM. Also, the TGI in the experiment on SNB-19 CNS was 11.3 µM; in the experiment on LOX IMVI melanoma, above 50 µM; in the experiment on SR leukemia, above 50 µM; with A549 NSCLC it was above 50 µM; in the experiment on HCT-15 colon, above 50 µM; in the experiment on SK-OV-3 ovarian, 15.9 µM. Moreover, the TGI with SN12C renal was above 50 µM; with HOP-62 NSCLC it was 21.5 µM.

For the compound `Nc1c(C(=O)Nc2ccccn2)sc2nc3c(cc12)C(O)CCC3` (centres undefined), the GI50 in the experiment with SNB-19 CNS is 2.13 µM; in the experiment with KM12 colon, 1.95 µM; in the experiment on LOX IMVI melanoma, 3.09 µM; in the experiment on SR leukemia, 179 nM; in the experiment on A549 NSCLC, 2600 nM; with HCT-15 colon it was 1.69 µM. The GI50 in the experiment with SN12C renal was 2570 nM; with SK-MEL-28 melanoma, above 50 µM; with HOP-62 NSCLC, 2.9 µM. For the same compound, the TGI in the experiment with SNB-19 CNS, in the experiment with KM12 colon, in the experiment with LOX IMVI melanoma, in the experiment with SR leukemia, with A549 NSCLC and with HCT-15 colon was above 50 µM each time. The TGI in the experiment with SN12C renal, in the experiment on SK-MEL-28 melanoma and with HOP-62 NSCLC was above 50 µM in each case.

In the case of `CC(=O)Oc1ccc2c(c1)[C@@]1(C)CCCC(C)(C)[C@@H]1CC2`, the GI50 in the experiment on SNB-19 CNS was 19.6 µM; in the experiment on KM12 colon, 19.2 µM; in the experiment on LOX IMVI melanoma, 17.7 µM; with SR leukemia, above 100000 nM; in the experiment on A549 NSCLC it was 24700 nM; in the experiment with HCT-15 colon, 19.5 µM. The results for the GI50 in the experiment with SN12C renal, in the experiment with SK-MEL-28 melanoma and with HOP-62 NSCLC were 18600 nM, 19.3 µM and 15.9 µM, respectively. Also, the TGI in the experiment with SNB-19 CNS is 39.4 µM; with KM12 colon, 45 µM; in the experiment with LOX IMVI melanoma, 32.1 µM; with SR leukemia, above 100 µM; with A549 NSCLC, 64.8 µM; with HCT-15 colon, 37.3 µM. Besides, the TGI in the experiment with SN12C renal was 33.1 µM; with SK-MEL-28 melanoma it was 49.8 µM; in the experiment on HOP-62 NSCLC, 30.2 µM.

With `O=c1[nH]c2cc([N+](=O)[O-])ccc2nc1/C(=N/Nc1ccccc1)C(O)c1ccco1` (centres undefined), the TGI with SNB-19 CNS, in the experiment on KM12 colon, in the experiment on LOX IMVI melanoma, in the experiment with SR leukemia, in the experiment on A549 NSCLC and in the experiment with HCT-15 colon was above 100 µM in each case. The TGI in the experiment on SN12C renal and in the experiment on HOP-62 NSCLC was above 100 µM in each case.

For the compound `Cc1cc(N(CCC#N)CCC#N)ccc1N=Nc1cc(Cl)ccc1Cl`, the TGI is 35.9 µM in the experiment on SNB-19 CNS; 30 µM with KM12 colon; 14.2 µM with LOX IMVI melanoma; 38.5 µM with A549 NSCLC; 6.58 µM in the experiment with HCT-15 colon; 29.9 µM with SK-OV-3 ovarian. For the same compound, the TGI worked out at 27.1 µM in the experiment on SN12C renal, 21.1 µM in the experiment on SK-MEL-28 melanoma and 35.3 µM in the experiment on HOP-62 NSCLC.

For `C=CC(COC(=O)C(C)(C)OC(C)=O)c1ccc(OC(=O)C(C)C)c(OC)c1` (centres undefined), the TGI is 23.2 µM in the experiment with SNB-19 CNS; 15.5 µM with KM12 colon; above 33.3 µM in the experiment with LOX IMVI melanoma; 47.5 µM in the experiment on A549 NSCLC; 4.88 µM in the experiment with HCT-15 colon; 30.8 µM with SK-OV-3 ovarian. The TGI in the experiment on SN12C renal is above 37 µM; in the experiment with SK-MEL-28 melanoma, 35.5 µM; in the experiment with HOP-62 NSCLC, 23.5 µM.
